Source: patent US20230045685A1, “COPPER CLUSTERS, COMPOSITION, AND METHOD FOR TREATMENT OF LIVER CIRRHOSIS” (Wuhan Vast Conduct Science Foundation CO., LTD., priority 2020, published 2023)

What was measured:
[1] = test system: CCl4-induced liver cirrhosis in a mouse model; experiment: Serum biochemical testing (ALT, AST, TBil, MAO, ALB) in CCl4-induced liver cirrhosis model mice; type: in vivo, C57BL/6N mice; conditions: sorafenib 25 mg/kg intragastrically, once a day for 20 days
Source text: (§1) 70 SPF male C57BL/6N mice, 6-8 weeks old and 16-20 g body weight, were purchased from Beijing Huafukang Experimental Animal Technology Co., Ltd. (production license number: SOCK (Jing) 2019-0008). According to body weight, they were randomly divided into 7 groups (n=10): blank control group, model group, positive control group, Cu-1 low dose group, Cu-1 high dose group, Cu-2 low dose group, Cu-2 high dose group.
(§2) Except for the blank control group, liver cirrhosis model of mice in other groups was prepared by the treatment of carbon tetrachloride (CCl4)-induction method. The modeling protocoal was as follows: (1) Each mouse was intraperitoneally injected with 10% CCl4 (diluted with olive oil) at 7 μL/g body weight, twice a week for a total of 8 weeks; mice of the blank control group were injected intraperitoneally with the same amount of olive oil solvent. (2) from the 6th week, two mice were selected and killed 48 hours after the last injection every week. The appearance of the liver was observed. After the appearance was in line with the characteristics of cirrhosis (the 8th week), the liver tissue was fixed with formalin. HE staining and Masson staining were used to evaluate the model of cirrhosis. […]

[2] = test system: CCl4-induced liver cirrhosis in a mouse model; experiment: HE staining pathological examination of liver tissue in CCl4-induced liver cirrhosis model mice; type: in vivo, C57BL/6N mice; conditions: sorafenib 25 mg/kg intragastrically, 20 days, vs model control group
Source text: as §1, §2

In the case of `CNC(=O)c1cc(Oc2ccc(NC(=O)Nc3ccc(Cl)c(C(F)(F)F)c3)cc2)ccn1` [Sorafenib], the “serum ALT activity” value ([1]; model group 188.5±4.9, P<0.01) is reported as 42.8±5.4 U/L, the “serum AST activity” value ([1]; model group 192.0±11.3, P<0.05) is reported as 165.5±11.6 U/L and the “HE staining: liver pathology” value [2] is reported as “significant reduction of liver damages”.
